From DBAASP
≈ marks a conversion by molar mass, not a printed value.

What was measured:
Assay in all cases: ≥ marks a high value that may be exact or a test limit, other limits are often not marked, values filed in µg/mL are converted to µM
[1] = tested on: Escherichia coli ATCC 25922
[2] = tested on: Pseudomonas aeruginosa ATCC 27853
[3] = tested on: Xanthomonas axonopodis pv. glycines ISBF 327
[4] = tested on: Staphylococcus aureus ATCC 29313
[5] = tested on: Legionella pneumophila ATCC 33155
[6] = tested on: Enterococcus faecalis ATCC 29212
[7] = tested on: Staphylococcus aureus ATCC 25923
Escherichia coli ML-35p = tested on: Escherichia coli ML-35p
[8] = tested on: Salmonella enterica subsp. enterica serovar Enteritidis
[9] = tested on: Candida parapsilosis ATCC 22019
Listeria ivanovii = tested on: Listeria ivanovii
[10] = tested on: Staphylococcus aureus ATCC BAA-44
[11] = tested on: Leishmania infantum (promastigote)
[12] = tested on: Staphylococcus aureus ST1065
[13] = tested on: Candida albicans ATCC 90028
Saccharomyces cerevisiae = tested on: Saccharomyces cerevisiae
[14] = tested on: Acinetobacter baumannii ATCC 19606
[15] = tested on: Legionella feeleii ATCC 35072
[16] = tested on: Streptococcus pyogenes ATCC 19615
[17] = tested on: Staphylococcus aureus ATCC 43300
[18] = tested on: Legionella longbeachae ATCC 33484
[19] = tested on: Klebsiella pneumoniae ATCC 13883
[20] = tested on: Legionella pneumophila Paris
[21] = tested on: Xanthomonas campestris pv. Vesicatoria 2133-2
[22] = tested on: Erwinia amylovora PMV 6076
[23] = tested on: Pseudomonas syringae pv. syringae EPS 94
[24] = tested on: Staphylococcus aureus ATCC 33591
[25] = tested on: Staphylococcus epidermidis ATCC 35984
[26] = tested on: Escherichia coli K12 MG1655
[27] = tested on: Staphylococcus aureus 68 HER 1049
Aspergillus fumigatus = tested on: Aspergillus fumigatus
Candida albicans = tested on: Candida albicans
[28] = tested on: Bacillus cereus PTCC 1435
Aspergillus niger = tested on: Aspergillus niger
[29] = tested on: Pseudomonas aeruginosa PTCC 2834
[30] = tested on: Bacillus subtilis PTCC 4533
[31] = tested on: Klebsiella pneumoniae PTCC 4231
[32] = tested on: Leuconostoc mesenteroides PTCC 1445
[33] = tested on: Escherichia coli PTCC 2433
[34] = tested on: Klebsiella pneumoniae IS59#
Escherichia coli IS117# = tested on: Escherichia coli IS117#
[35] = tested on: Enterobacter cloacae ATCC 13047
[36] = tested on: Klebsiella pneumoniae ATCC 700603
[37] = tested on: Candida albicans ATCC 2002
Escherichia coli IS37# = tested on: Escherichia coli IS37#
[38] = tested on: Pseudomonas aeruginosa CMCCB 1010
Shigella dysenteriae = tested on: Shigella dysenteriae

Which results are given for `CC[C@H](C)[C@H](NC(=O)[C@H](C)NC(=O)[C@H](C)NC(=O)[C@H](C)NC(=O)[C@H](C)NC(=O)[C@H](C)NC(=O)[C@H](C)NC(=O)[C@H](C)N)C(=O)N[C@@H](CCCCN)C(=O)N[C@@H](CCSC)C(=O)N[C@@H](CC(C)C)C(=O)N[C@@H](CCSC)C(=O)N[C@@H](CC(=O)O)C(=O)N[C@@H](CC(C)C)C(=O)N[C@H](C(=O)N[C@@H](CC(N)=O)C(=O)N[C@@H](CCC(=O)O)C(=O)N[C@@H](CCCN=C(N)N)C(=O)N[C@H](C(=O)N[C@@H](CCSC)C(=O)N[C@@H](C)C(=O)N[C@@H](CC(C)C)C(=O)N[C@@H](CC(N)=O)C(=O)N[C@@H](CCCCN)C(=O)N[C@@H](CCCCN)C(=O)N[C@@H](C)C(=O)N[C@@H](CCCCN)C(=O)N[C@@H](CCCCN)C(N)=O)[C@@H](C)CC)C(C)C` [AAAAAAAIKMLMDLVNERIMALNKKAKK]?
MIC [1]: 10 µM (≈ 29.8 µg/mL); MIC [2]: 20 µM (≈ 59.7 µg/mL); MIC [3]: 1 µM (≈ 2.98 µg/mL); MIC [4]: 20 µM (≈ 59.7 µg/mL)

With `CC[C@H](C)[C@H](NC(=O)CNC(=O)[C@H](CCCCN)NC(=O)[C@H](CC(C)C)NC(=O)[C@@H](N)Cc1ccccc1)C(=O)N[C@H](C(=O)NCC(=O)N[C@@H](CCSC)C(=O)N[C@@H](CC(C)C)C(=O)NCC(=O)N[C@@H](CCCCN)C(=O)N[C@@H](CC(C)C)C(=O)N[C@@H](Cc1ccccc1)C(N)=O)C(C)C` [FLKGIVGMLGKLF] as the molecule, how does the MIC [5] read?
The MIC was 3.12 µM (≈ 4.44 µg/mL).

What about the MIC [6] of the same molecule?
Its MIC is 6 µM (≈ 8.53 µg/mL).

And the MIC [7]?
Its MIC is 3 µM (≈ 4.27 µg/mL).

And the MIC (Escherichia coli ML-35p)?
Its MIC is 3 µM (≈ 4.27 µg/mL).

What about the MIC [8] of the same molecule?
The MIC was 6 µM (≈ 8.53 µg/mL).

And the MIC [1]?
The MIC was 3 µM (≈ 4.27 µg/mL).

What about the MIC [9] of the same molecule?
Its MIC is 25 µM (≈ 35.5 µg/mL).

And the MIC (Listeria ivanovii)?
The MIC was 3 µM (≈ 4.27 µg/mL).

What about the MIC [10] of the same molecule?
The MIC was 3 µM (≈ 4.27 µg/mL).

And the MIC [11]?
The MIC was 10 µM (≈ 14.2 µg/mL).

What about the MIC [12] of the same molecule?
The MIC was 3 µM (≈ 4.27 µg/mL).

And the MIC [2]?
The MIC was 6 µM (≈ 8.53 µg/mL).

And the MIC [13]?
Its MIC is 6 µM (≈ 8.53 µg/mL).

What about the MIC (Saccharomyces cerevisiae) of the same molecule?
Its MIC is 3 µM (≈ 4.27 µg/mL).

And the MIC [14]?
The MIC was 3 µM (≈ 4.27 µg/mL).

And the MIC [15]?
Its MIC is 3.12 µM (≈ 4.44 µg/mL).

And the MIC [16]?
Its MIC is 1 µM (≈ 1.42 µg/mL).

What about the MIC [17] of the same molecule?
Its MIC is 3 µM (≈ 4.27 µg/mL).

What about the MIC [18] of the same molecule?
The MIC was 3.12 µM (≈ 4.44 µg/mL).

And the MIC [19]?
The MIC was 3 µM (≈ 4.27 µg/mL).

What about the MIC [20] of the same molecule?
The MIC was 3.12 µM (≈ 4.44 µg/mL).

With `CC[C@H](C)[C@H](NC(=O)[C@H](CCCCN)NC(=O)[C@H](CCCCN)NC(=O)[C@H](Cc1ccccc1)NC(=O)[C@H](CC(C)C)NC(=O)[C@H](CCCCN)NC(=O)[C@H](CCCCN)NC(=O)[C@H](C)NC(=O)[C@@H]1CCCN1C(=O)CNC(=O)[C@H](C)NC(=O)[C@H](CC(C)C)NC(=O)[C@H](Cc1ccc(O)cc1)NC(=O)[C@H](CCCCN)NC(=O)[C@H](CC(C)C)NC(=O)[C@@H](NC(=O)[C@H](CCCCN)NC(=O)[C@H](CCCCN)NC(=O)[C@H](Cc1ccccc1)NC(=O)[C@H](CC(C)C)NC(=O)[C@H](CCCCN)NC(=O)[C@H](CCCCN)NC(=O)CN)[C@@H](C)CC)C(=O)N[C@@H](CC(C)C)C(=O)N[C@@H](CCCCN)C(=O)N[C@@H](Cc1ccc(O)cc1)C(=O)N[C@@H](CC(C)C)C(=O)O` [GKKLFKKILKYLAGPAKKLFKKILKYL] as the molecule, how does the MIC [21] read?
The MIC was 14.1 µM (≈ 45 µg/mL).

What about the MIC [22] of the same molecule?
The MIC was 14.1 µM (≈ 45 µg/mL).

And the MIC [23]?
Its MIC is 8.66 µM (≈ 27.5 µg/mL).

What does the source list for `CC[C@H](C)[C@H](NC(=O)[C@H](CCCCN)NC(=O)[C@@H](NC(=O)[C@H](Cc1ccccc1)NC(=O)[C@H](C)NC(=O)[C@H](CCCCN)NC(=O)CNC(=O)[C@H](Cc1ccccc1)NC(=O)[C@H](CCCCN)NC(=O)[C@@H](N)CCCCN)C(C)C)C(=O)N[C@@H](CC(C)C)C(=O)N[C@@H](CCCCN)C(N)=O` [KKFGKAFVKILK]?
MIC [24]: ≥ 182 µM; MIC [7]: 182 µM (≈ 256 µg/mL); MIC [2]: 16.1 µM (≈ 22.6 µg/mL); MIC [25]: ≥ 64.3 µM

How did the MIC [26] turn out when `CC[C@H](C)[C@H](NC(=O)CNC(=O)[C@H](CC(C)C)NC(=O)[C@H](Cc1ccccc1)NC(=O)[C@H](CC(C)C)NC(=O)[C@H](CCCCN)NC(=O)[C@H](Cc1c[nH]c2ccccc12)NC(=O)[C@@H](N)CCCCN)C(=O)N[C@@H](CC(C)C)C(=O)N[C@@H](C)C(=O)N[C@H](C(=O)N[C@@H](CC(C)C)C(=O)N[C@@H](CCCCN)C(=O)N[C@H](C(=O)N[C@@H](CC(C)C)C(=O)O)C(C)C)C(C)C` [KWKLFLGILAVLKVL] was run?
The MIC was 18.4 µM (≈ 32 µg/mL).

And the MIC [27]?
Its MIC is 18.4 µM (≈ 32 µg/mL).

For `CC[C@H](C)[C@H](NC(=O)[C@H](CO)NC(=O)[C@H](CCCCN)NC(=O)[C@H](CC(C)C)NC(=O)[C@H](CCCN=C(N)N)NC(=O)[C@@H](N)CC(C)C)C(=O)N[C@H](C(=O)N[C@@H](CO)C(=O)N[C@@H](Cc1ccc(O)cc1)C(=O)N[C@@H](C)C(=O)N[C@@H](CCCCN)C(=O)N[C@@H](CCCCN)C(=O)N[C@H](C(=O)N[C@@H](CC(C)C)C(=O)O)C(C)C)C(C)C` [LRLKSIVSYAKKVL], which MIC (Aspergillus fumigatus) is on record?
The MIC was 11.9 µM (≈ 19.3 µg/mL).

And the MIC (Candida albicans)?
Its MIC is 12.6 µM (≈ 20.4 µg/mL).

What about the MIC [28] of the same molecule?
Its MIC is 9.33 µM (≈ 15.1 µg/mL).

What about the MIC (Aspergillus niger) of the same molecule?
Its MIC is 15.2 µM (≈ 24.6 µg/mL).

And the MIC [29]?
The MIC was 15 µM (≈ 24.2 µg/mL).

What about the MIC [30] of the same molecule?
The MIC was 10.9 µM (≈ 17.6 µg/mL).

What about the MIC [31] of the same molecule?
The MIC was 16.5 µM (≈ 26.7 µg/mL).

What about the MIC [32] of the same molecule?
Its MIC is 12.2 µM (≈ 19.8 µg/mL).

And the MIC [33]?
Its MIC is 17.5 µM (≈ 28.3 µg/mL).

For `C[C@@H](O)[C@@H]1NC(=O)CNC(=O)[C@H](CCCCN)NC(=O)[C@H](Cc2ccccc2)NC(=O)[C@@H](NC(=O)[C@H](Cc2ccccc2)NC(=O)[C@@H](N)CCCN=C(N)N)CSSC[C@@H](C(=O)NCC(=O)O)NC(=O)[C@@H]2CCCN2C1=O` [RFCFKGTPCG], which MIC [6] is on record?
Its MIC is 17.9 µM (≈ 20 µg/mL).

And the MIC [7]?
Its MIC is 4.48 µM (≈ 4.99 µg/mL).

What about the MIC [1] of the same molecule?
The MIC was 8.97 µM (≈ 9.98 µg/mL).

And the MIC [9]?
Its MIC is 17.9 µM (≈ 20 µg/mL).

And the MIC [34]?
Its MIC is at least 44.8 µM.

And the MIC (Escherichia coli IS117#)?
The MIC was at least 44.8 µM.

And the MIC [35]?
The MIC was 8.97 µM (≈ 9.98 µg/mL).

What about the MIC [36] of the same molecule?
The MIC was 17.9 µM (≈ 20 µg/mL).

What about the MIC [13] of the same molecule?
Its MIC is 17.9 µM (≈ 20 µg/mL).

And the MIC [37]?
The MIC was 17.9 µM (≈ 20 µg/mL).

And the MIC (Escherichia coli IS37#)?
The MIC was at least 44.8 µM.

What about the MIC [38] of the same molecule?
The MIC was at least 44.8 µM.

What about the MIC (Shigella dysenteriae) of the same molecule?
The MIC was 17.9 µM (≈ 20 µg/mL).
